# According to patent publication US20260308149A1, “NOVEL CARBOXAMIDE DERIVATIVES” (ANGELINI PHARMA S.P.A., priority 2023, published 2026):
# Target: T1, human Kv7.2 (Homo sapiens, UniProt O43526)
# T1 construct: expressed in transfected cells
# Experiment: activation (potentiation) of Kv7.2 current, SyncroPatch 384 electrophysiology in CHO cells stably expressing human Kv7.2
# Assay type: cell-based
# Conditions: human Kv7.2 in CHO cells; in presence of 5.6 μM zinc pyrithione; % activation relative to 30 μM ML-213
# Experimental: The potency of Kv7 potentiators was determined using the SyncroPatch 384 (Nanion) high throughput electrophysiology platform.
# CHO cells stably expressing either human Kv7.2, Kv7.4 or Kv7.5/7.3 under a constitutive CMV promoter were used for these studies. Cells were maintained in F12 Hams+1 mM L-glutamine (Hyclone) supplemented with 10% FBS (Sigma), 0.3×NEAA (Non-essential Gamino-acids) and 400 ug/ml G418 at 37° C. in 5% CO2. Cells were cultured in T-225 flasks (Nunc) for 2-3 days to reach 85-95% confluence prior to electrophysiological recording.
# Earle's balanced salt solution (in mM): 135 NaCl, 5.4 KCl, 5 Glucose, 2 CaCl2), 1 MgCl2, 5 HEPES, pH 7.4. Seal enhancer solution (in mM): 90 NaCl, 3 KCl, 35 CaCl2), 10 MgCl2, 10 HEPES, pH 7.4. Extracellular recording solution (in mM): 71 NaCl, 70 NMDG, 13 KCl. 5 Glucose, 2 CaCl2, 1 MgCl2, 10 HEPES, pH 7.4. Intracellular recording solution (in mM): 130 KF, 20 KCl, 4 EGTA, 10 HEPES, 2 EDTA, 0.01 Escin, pH 7.2.
# Cells were harvested for electrophysiological recording upon reaching appropriate confluence. Cells were first washed in DPBS (Hyclone, Cat #SH30028.03) and then 2 ml of Accutase (MP Biomedicals #1000449) was added at 28° C. until ~90% of cells were suspended. F12 HAM's media+1 mM L-glutamine (Hyclone, SH30026.02) was then added to the flask to dilute the accutase. Cells were then triturated until a single cell suspension was achieved, a cell count was performed, and cells were centrifuged for 2 min. at 1,000 rpm. Media was then aspirated, and cells were resuspended in Earle's balanced salt solution to a concentration of 0.75×10^6 cells/ml and allowed to recover for 25 min at 10° C.
# At the beginning of each assay, 20 μl of cell suspension was dispensed into each well of a multi-hole 384-well SyncroPatch chip by the onboard pipettor. Cell sealing was initiated, and seal enhancer solution was added to facilitate seal formation. Upon completion of sealing, cells were washed 3 times with extracellular recording solution and the assay voltage protocol was started. Human Kv7.2, Kv7.4 or Kv7.5/7.3 channels were evaluated using a voltage protocol in which cells were voltage-clamped at a holding potential of −60 mV. Potassium currents were continuously activated with a series of three voltage steps to −30 mV for 3 seconds, 40 mV for 1 second and −90 mV for 4 seconds with 12 seconds between successive voltage sweeps. Potassium currents were measured from the −90 mV repolarizing step. Baseline current was assessed for 3.5 minutes prior to the addition of 5.6 μM zinc pyrithione (1 μM for Kv7.4). Kv7.2, Kv7.4 or Kv7.5/7.3 current in the presence of zinc pyrithione was acquired over five minutes to allow channels to reach steady state activity prior to addition of test agents. Channel activity was monitored for three minutes preceding the addition of 30 μM ML-213 (3 minutes) to achieve maximum activation. 150 mM TEA with 10 μM XE-991 was applied for 2 minutes to measure the leak current during maximum inhibition of Kv7.2, Kv7.4 or Kv7.5/7.3 channels.
# Data were collected on the SyncroPatch platform using PatchControl software (Nanion) and processed and analyzed using DataControl Software (Nanion). Percent activation was calculated from potassium current as follows: The average current for the 5 sweeps in the presence of zinc pyrithione immediately preceding test agent addition was taken as the ‘control’ data. Likewise, the average potassium current in the presence of test agents 5 sweeps immediately preceding addition of 30 μM ML-213 was determined for ‘drug’ data. The average potassium current 5 sweeps immediately prior to addition of 150 mM TEA+10 μM XE-991 was determined for ‘max activation’ data while average currents from 5 sweeps immediately following addition of TEA was determined for ‘max inhibition’ data. Percent activation for each of the 384-wells of a sealchip was calculated as ((‘drug’−‘max inhibition’)/(‘max activation’−‘max inhibition’))*100 with Pipeline Pilot (Accelrys). […]
# T1 sequence (O43526 whole entry): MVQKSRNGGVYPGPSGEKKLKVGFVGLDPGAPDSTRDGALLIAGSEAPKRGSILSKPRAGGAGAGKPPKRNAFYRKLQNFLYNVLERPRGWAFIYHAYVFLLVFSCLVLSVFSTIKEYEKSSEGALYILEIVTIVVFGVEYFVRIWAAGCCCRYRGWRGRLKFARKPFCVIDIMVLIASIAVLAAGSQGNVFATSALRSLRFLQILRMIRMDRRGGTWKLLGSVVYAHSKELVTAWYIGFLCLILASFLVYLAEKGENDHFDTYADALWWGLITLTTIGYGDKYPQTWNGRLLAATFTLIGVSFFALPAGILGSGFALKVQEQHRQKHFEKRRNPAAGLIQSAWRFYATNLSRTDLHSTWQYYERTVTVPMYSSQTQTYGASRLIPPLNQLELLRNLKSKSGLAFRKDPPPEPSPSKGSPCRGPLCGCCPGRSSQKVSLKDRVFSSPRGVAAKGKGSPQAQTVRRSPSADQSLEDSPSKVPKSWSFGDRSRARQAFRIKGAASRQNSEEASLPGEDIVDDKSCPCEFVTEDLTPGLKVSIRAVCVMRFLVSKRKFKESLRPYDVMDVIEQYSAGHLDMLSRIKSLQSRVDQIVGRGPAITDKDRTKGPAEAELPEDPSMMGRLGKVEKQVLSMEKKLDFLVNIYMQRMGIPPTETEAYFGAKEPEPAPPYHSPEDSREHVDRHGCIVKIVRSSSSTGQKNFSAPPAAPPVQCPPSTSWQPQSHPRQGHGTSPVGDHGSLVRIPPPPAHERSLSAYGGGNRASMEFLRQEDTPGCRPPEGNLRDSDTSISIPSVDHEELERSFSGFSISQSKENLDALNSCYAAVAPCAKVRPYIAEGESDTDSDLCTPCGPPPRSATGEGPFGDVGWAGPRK
row,EC50 [nM],SMILES
1,6790,"O=C(NC/C(=C/CO)c1cccc(Cl)c1)NCC1CCCC1 [Example 78, 1-[(E)-2-(3-chlorophenyl)-4-hydroxy-but-2-enyl]-3-(cyclopentylmethyl)urea]"
2,200,"N#Cc1cccc(C2(CNC(=O)[C@H]3C[C@@H]3c3ccccc3)CCC(=O)O2)c1 (stereo partly drawn) [Example 88, (1S,2S)—N-[[2-(3-cyanophenyl)-5-oxo-tetrahydrofuran-2-yl]methyl]-2-phenyl-cyclopropanecarboxamide]"
3,5950,"N#Cc1cccc([C@]2(CNC(=O)C(F)C3CC4CCC3C4)CCO2)c1 (stereo partly drawn) [Example 131, N-[[(2S)-2-(3-cyanophenyl)oxetan-2-yl]methyl]-2-fluoro-2-norbornan-2-yl-acetamide]"
4,2550,"N#Cc1cccc([C@]2(CNC(=O)[C@H]3C[C@@H]3C(F)(F)F)CCO2)c1 [Example 95, (1S,2S)—N-[[(2S)-2-(3-cyanophenyl)oxetan-2-yl]methyl]-2-(trifluoromethyl)cyclopropanecarboxamide]"
5,3190,"O=C(CC1CCCCC1)N[C@H]1C[C@H](c2cccc(Cl)c2)C1 [Example 56, N-[3-(1r,3r)-(3-chlorophenyl)cyclobutyl]-2-cyclohexyl-acetamide]"
6,4240,"O=C(NCC1(c2ccnc(OC(F)F)c2)CCO1)[C@H]1C[C@@H]1C(F)(F)F (stereo partly drawn) [Example 129, (1S,2S)—N-[[2-[2-(difluoromethoxy)-4-pyridyl]oxetan-2-yl]methyl]-2-(trifluoromethyl)cyclopropanecarboxamide]"
7,2580,"CCOC(CNC(=O)NC1CCCC1)c1cccc(Br)c1 (centres unmarked) [Example 28, 1-[2-(3-bromophenyl)-2-ethoxy-ethyl]-3-cyclopentyl-urea]"
8,2920,"O=C(NCC1(c2cccc(Cl)c2)CC1)NC1COC2(CCCC2)C1 (centres unmarked) [Example 12, 1-[[1-(3-chlorophenyl)cyclopropyl]meth-yl]-3-(1-oxaspiro[4.4]nonan-3-yl)urea]"
9,2000,"N#CCOC(CNC(=O)CC1CCCC1)c1cccc(Cl)c1 (centres unmarked) [Example 73, N-[2-(3-chlorophenyl)-2-(cyanomethoxy)ethyl]-2-cyclopentyl-acetamide]"
10,500,"COC(CNC(=O)NC1CC2CCC1C2)c1cccc(Cl)c1 (centres unmarked) [Example 4, 1-[2-(3-chlorophenyl)-2-methoxy-ethyl]-3-norbornan-2-yl-urea]"
11,380,"CO[C@@](C)(CNC(=O)C1CC12CCC(F)(F)CC2)c1cccc(Cl)c1 (stereo partly drawn) [Example 83, N-[(2R)-2-(3-chlorophenyl)-2-methoxy-propyl]-6,6-difluoro-spiro[2.5]octane-2-carboxamide]"
12,5690,"COC(C)(CNC(=O)Nc1cccc(OC(F)(F)F)c1)c1cccc(Cl)c1 (centres unmarked) [Example 29, 1-[2-(3-chlorophenyl)-2-methoxy-propyl]-3-[3-(trifluoromethoxy)phenyl]urea]"
13,1810,"O=C(NCC(CCO)c1cccc(Cl)c1)[C@H]1C[C@@H]1c1ccccc1 (stereo partly drawn) [Example 92, (1S,2S)—N-[2-(3-chlorophenyl)-4-hydroxy-butyl]-2-phenyl-cyclopropanecarboxamide]"
14,790,"O=C(NCC(OCC(F)(F)F)c1cccc(Cl)c1)NC1C[C@H]2CC[C@@H]1C2 (mixture of isomers) [Example 45, 1-[2-(3-chlorophenyl)-2-(2,2,2-trifluoroethoxy)ethyl]-3-[rac-(1R,4S)-norbornan-2-yl]urea]"
15,1120,"N#Cc1cccc(C2(CNC(=O)CC3CCCCC3)OCC2(F)F)c1 (centres unmarked) [Example 91, N-[[2-(3-cyanophenyl)-3,3-difluoro-oxetan-2-yl]methyl]-2-cyclohexyl-acetamide]"
16,4010,"[2H]C([2H])([2H])OC(C)(CNC(=O)NC1CCCC1)c1cccc(Cl)c1 (centres unmarked) [Example 26, 1-[2-(3-chlorophenyl)-2-(trideuteriomethoxy)propyl]-3-cyclopentyl-urea]"

row,EC50 [nM],SMILES
1,6290,"CO[C@@](C)(CNC(=O)CCC(O)C(C)(C)C)c1cccc(Cl)c1 (stereo partly drawn) [Example 69, N-[(2R)-2-(3-chlorophenyl)-2-methoxy-propyl]-4-hydroxy-5,5-dimethyl-hexanamide]"
2,3550,"COC(C)(CNC(=O)NC1COC2(CCCC2)C1)c1cccc(Cl)c1 (centres unmarked) [Example 13, 1-[2-(3-chlorophenyl)-2-methoxy-propyl]-3-(1-oxaspiro[4.4]nonan-3-yl)urea]"
3,1320,"CC(C#N)(CNC(=O)[C@H]1C[C@@H]1c1ccccc1)c1cccc(Cl)c1 (mixture of isomers) [Example 37, rac-(1S,2S)-N-[2-(3-chlorophenyl)-2-cyano-propyl]-2-phenyl-cyclopropanecarboxamide]"
4,420,"O=C(NCc1cccc(Cl)c1)NCC1(c2cccc(Cl)c2)CCO1 (centres unmarked) [Example 62, 1-[(3-chlorophenyl)methyl]-3-[[2-(3-chlorophenyl)oxetan-2-yl]methyl]urea]"
5,2190,"N#Cc1cc(C2(CNC(=O)[C@H]3C[C@@H]3c3ccccc3)CCO2)ccc1F (stereo partly drawn) [Example 125, (1S,2S)—N-[[2-(3-cyano-4-fluoro-phenyl)oxetan-2-yl]methyl]-2-phenyl-cyclopropanecarboxamide]"
6,8240,"O=C(CC1(C(F)(F)F)CC1)NCC1(c2cccc(OC(F)F)n2)CCO1 (centres unmarked) [Example 132, N-[[2-[6-(difluoromethoxy)-2-pyridyl]oxetan-2-yl]methyl]-2-[1-(trifluoromethyl)cyclopropyl]acetamide]"
7,290,"O=C(NCC1CCCC1)NCC1(c2cccc(Cl)c2)CCC(=O)O1 (centres unmarked) [Example 75, 1-[[2-(3-chlorophenyl)-5-oxo-tetrahydrofuran-2-yl]methyl]-3-(cyclopentylmethyl)urea]"
8,170,"COC(C)(CNC(=O)N[C@H]1CC2CCC1C2)c1cccc(Cl)c1 (mixture of isomers) [Example 25, 1-[2-(3-chlorophenyl)-2-methoxy-propyl]-3-[rac-(1S,2S,4R)-norbornan-2-yl]urea]"
9,600,"CCOc1cccc(NC(=O)NCC(C)(OC)c2cccc(Cl)c2)c1 (centres unmarked) [Example 14, 1-[2-(3-chlorophenyl)-2-methoxy-propyl]-3-(3-ethoxyphenyl)urea]"
10,5620,"N#Cc1cccc([C@@]2(CNC(=O)CC3CCCCCC3)CCO2)c1 [Example 94, N-[[(2R)-2-(3-cyanophenyl)oxetan-2-yl]methyl]-2-cycloheptyl-acetamide]"
11,2490,"CC(C#N)(CNC(=O)[C@H]1C[C@@H]1c1ccccc1)c1cccc(C(F)(F)F)c1 (mixture of isomers) [Example 31, rac-(1S,2S)-N-[2-cyano-2-[3-(trifluoromethyl)phenyl]propyl]-2-phenyl-cyclopropanecarboxamide]"
12,940,"COC(C)(CNC(=O)[C@H]1C[C@@H]1c1ccccc1)c1ccnc(Cl)c1 (mixture of isomers) [Example 51, (1S,2S)-N-[(2RS)-2-(2-chloro-4-pyridyl)-2-methoxy-propyl]-2-phenyl-cyclopropanecarboxamide]"
13,3270,"COC(C)(CNC(=O)NC1CC=CC1)c1cccc(Cl)c1 (centres unmarked) [Example 30, 1-[2-(3-chlorophenyl)-2-methoxy-propyl]-3-cyclopent-3-en-1-yl-urea]"
14,1350,"COC(C)(CNC(=O)NC1CC2CCC1C2)c1cccc(Cl)c1 (racemic) [Example 35, 1-[2-(3-chlorophenyl)-2-methoxy-propyl]-3-[rac-(1S,4R)-norbornan-2-yl]urea]"
15,530,"COC(C)(CNC(=O)NCC1CCCC1)c1cccc(Cl)c1 (single isomer, unassigned) [Example 71]"
16,5190,O=C(CC12CC(C1)C2)NCC1(c2cccc(Cl)c2)CCO1 (centres unmarked) [Example 63]
